The values below come from patent publication US10011586B2, “Heterocyclic compound, method for preparing the same, and pharmaceutical composition comprising the same” (Daewoong Pharmaceutical Co., Ltd., priority 2015, dated 2018).

pIC50: −log10 of the molar value.

One assay concerns NCI-H460 cells. As to the kind of experiment: Cancer cell growth inhibition experiment (MTT assay). The note with it: Homo sapiens, lung cancer cell line, compounds 48 hours, cell viability by MTT assay. The assay is classed as cell-based. On the procedure: NCl-H460 cells, lung cancer cell lines, were cultured in 5% CO2, 37° C. incubator using a flask for 75 cm^2 tissue culture. 96-well plates were used for the evaluation. These were prepared by differently applying at concentrations in the range of 6,000 to 12,000 cells/well according to the growth rate of the cell lines. The medium containing 5% FBS were dispensed in 200 μL/well and used. The medium were cultured for 24 hours. After confirming the cell status and dispensing form of a 96-well plate under a microscope, they were used for subsequent experiments. The compounds were evaluated at concentrations of 100, 30, 10, 3, 1, 0.3, 0.03, 0.01 μM. After removing the existing medium, the compounds with various concentrations were treated in an amount of 200 μL/well. The compounds-treated plates were further cultured for 48 hours, and the cell viabilities were measured by MTT assay to calculate IC50 values.
% Inhibition and IC50 values of the respective compounds were calculated and analyzed using Sigma Plot 8.0. In Table 2, the results are divided into A, B and C according to the range of IC50. The case where the derived IC50 is 3 μM or less is represented by “A”, the case where the IC50 is 3 to 10 μM is represented by “B”, and the case where the IC50 is 10 μM or higher is represented by “C”.

Another assay has as its target T1, PRS enzyme (Homo sapiens, UniProt P07814).
T1 construct: the portion corresponding to PRS in cDNA of EPRS was subcloned; made in house
T1 sequence (P07814 1007-1512 limits assumed): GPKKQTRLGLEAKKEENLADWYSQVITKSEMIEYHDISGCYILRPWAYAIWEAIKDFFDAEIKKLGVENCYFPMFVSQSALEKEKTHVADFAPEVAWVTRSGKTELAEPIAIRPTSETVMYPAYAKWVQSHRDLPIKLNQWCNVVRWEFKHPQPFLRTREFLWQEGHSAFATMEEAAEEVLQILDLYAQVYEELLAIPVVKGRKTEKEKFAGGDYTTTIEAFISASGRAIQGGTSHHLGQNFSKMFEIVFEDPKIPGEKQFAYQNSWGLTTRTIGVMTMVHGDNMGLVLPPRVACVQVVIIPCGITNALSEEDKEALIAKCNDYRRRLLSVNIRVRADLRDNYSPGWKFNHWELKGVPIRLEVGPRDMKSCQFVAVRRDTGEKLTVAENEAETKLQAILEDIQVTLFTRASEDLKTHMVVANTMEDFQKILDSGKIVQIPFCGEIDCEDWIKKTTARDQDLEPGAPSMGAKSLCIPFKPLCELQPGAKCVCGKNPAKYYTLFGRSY
As to the kind of experiment: PRS enzyme activity inhibition experiment. The assay is classed as biochemical. The note with it: purified PRS protein subcloned from EPRS cDNA; [3H]proline, 37° C., 5 to 10 minutes, liquid scintillation counter; read-out: PRS IC50. On the procedure: Specifically, the portion corresponding to PRS in cDNA of EPRS was subcloned, and the obtained high-purity PRS protein was purified and used in the experiment. The compounds (1 μM) prepared in Examples were added into the reaction buffer (20 mM KPO4 (pH 7.4), 6 mM MgAc, 5 mM ATP, […] tRNA, 0.5 mM DTT, […][^3H]proline (1 mCi/mL)) and allowed to react at 37° C. for 5 to 10 minutes. The reaction was terminated with 3M paper that was in advance dried by addition of 5% TCA. The radioactivity was measured using a liquid scintillation counter.
% Inhibition and IC50 values of the respective compounds were calculated and analyzed using Microsoft Excel or Sigma Plot 8.0. In Table 1, the results are divided into A, B and C according to the range of IC50.

Turning to `COc1cccc(-c2ccc3c(ncn3CC(=O)C[C@H]3NCCC[C@@H]3O)c2C)c1` [Example 22, 1-((2R,3S)-3-hydroxypiperidin-2-yl)-3-(5-(3-methoxyphenyl)-4-methyl-1H-benzo[d]imidazol-1-yl)propan-2-one], the values for the pIC50 in the assay on NCI-H460 cells and on PRS enzyme were no more than 5.00 and less than 6.30, respectively.
For `Cc1c(-c2cscn2)ccc2c1ncn2CC(=O)C[C@H]1NCCC[C@@H]1O` [Example 23, 1-((2R,3S)-3-hydroxypiperidin-2-yl)-3-(4-methyl-5-(thiazol-4-yl)-1H-benzo[d]imidazol-1-yl)propan-2-one], in that order: no more than 5.00 and greater than 7.00.
In the case of `O=C(C[C@H]1NCCC[C@@H]1O)Cn1cnc2ccc(-c3ccccc3)cc21` [Example 24, 1-((2R,3S)-3-hydroxypiperidin-2-yl)-3-(6-phenyl-1H-benzo[d]imidazol-1-yl)propan-2-one], the pIC50 in the assay on NCI-H460 cells is 5.00 to 5.52; on PRS enzyme it was greater than 7.00.
Regarding `O=C(C[C@H]1NCCC[C@@H]1O)Cn1cnc2ccc(-c3cccc(F)c3)cc21` [Example 25, 1-(6-(3-fluorophenyl)-1H-benzo[d]imidazol-1-yl)-3-((2R,3S)-3-hydroxypiperidin-2-yl)propan-2-one], the pIC50 with NCI-H460 cells was no less than 5.52; at PRS enzyme it was greater than 7.00.
With `O=C(C[C@H]1NCCC[C@@H]1O)Cn1cnc2ccc(-c3ccccc3Cl)cc21` [Example 26, 1-(6-(2-chlorophenyl)-1H-benzo[d]imidazol-1-yl)-3-((2R,3S)-3-hydroxypiperidin-2-yl)propan-2-one], the pIC50 with NCI-H460 cells was 5.00 to 5.52; on PRS enzyme it was greater than 7.00.
With `O=C(C[C@H]1NCCC[C@@H]1O)Cn1cnc2ccc(-c3cccc(Cl)c3)cc21` [Example 27, 1-(6-(3-chlorophenyl)-1H-benzo[d]imidazol-1-yl)-3-((2R,3S)-3-hydroxypiperidin-2-yl)propan-2-one], the values for the negative logarithm of the IC50 (pIC50) in the assay on NCI-H460 cells and at PRS enzyme were no less than 5.52 and greater than 7.00, respectively.
For `O=C(C[C@H]1NCCC[C@@H]1O)Cn1cnc2ccc(-c3ccc(Cl)cc3)cc21` [Example 28, 1-(6-(4-chlorophenyl)-1H-benzo[d]imidazol-1-yl)-3-((2R,3S)-3-hydroxypiperidin-2-yl)propan-2-one], in that order: 5.00 to 5.52 and greater than 7.00.
For `O=C(C[C@H]1NCCC[C@@H]1O)Cn1cnc2ccc(-c3cccc(C(F)(F)F)c3)cc21` [Example 29, 1-((2R,3S)-3-hydroxypiperidin-2-yl)-3-(6-(3-(trifluoromethyl)phenyl)-1H-benzo[d]imidazol-1-yl)propan-2-one], in that order: no less than 5.52 and greater than 7.00.
For `Cc1cccc(-c2ccc3ncn(CC(=O)C[C@H]4NCCC[C@@H]4O)c3c2)c1` [Example 30, 1-((2R,3S)-3-hydroxypiperidin-2-yl)-3-(6-(m-tolyl)-1H-benzo[d]imidazol-1-yl)propan-2-one], in that order: 5.00 to 5.52 and greater than 7.00.
Take `O=C(C[C@H]1NCCC[C@@H]1O)Cn1cnc2ccc(-c3cc(Cl)cc(Cl)c3)cc21` [Example 31, 1-(6-(3,5-dichlorophenyl)-1H-benzo[d]imidazol-1-yl)-3-((2R,3S)-3-hydroxypiperidin-2-yl)propan-2-one]: the negative-log IC50 (pIC50) with NCI-H460 cells is 5.00 to 5.52; on PRS enzyme, greater than 7.00.
For `O=C(C[C@H]1NCCC[C@@H]1O)Cn1cnc2ccc(-c3cc(F)cc(Cl)c3)cc21` [Example 32, 1-(6-(3-chloro-5-fluorophenyl)-1H-benzo[d]imidazol-1-yl)-3-((2R,3S)-3-hydroxypiperidin-2-yl)propan-2-one], in that order: no less than 5.52 and greater than 7.00.
For `O=C(C[C@H]1NCCC[C@@H]1O)Cn1cnc2ccc(-c3ccc(F)c(Cl)c3)cc21` [Example 33, 1-(6-(3-chloro-4-fluorophenyl)-1H-benzo[d]imidazol-1-yl)-3-((2R,3S)-3-hydroxypiperidin-2-yl)propan-2-one], in that order: 5.00 to 5.52 and greater than 7.00.
With `Cc1cc(Cl)cc(-c2ccc3ncn(CC(=O)C[C@H]4NCCC[C@@H]4O)c3c2)c1` [Example 34, 1-(6-(3-chloro-5-methylphenyl)-1H-benzo[d]imidazol-1-yl)-3-((2R,3S)-3-hydroxypiperidin-2-yl)propan-2-one], the pIC50 is 5.00 to 5.52 in the assay with NCI-H460 cells and greater than 7.00 on PRS enzyme.
For `COc1cc(Cl)cc(-c2ccc3ncn(CC(=O)C[C@H]4NCCC[C@@H]4O)c3c2)c1` [Example 35, 1-(6-(3-chloro-5-methoxyphenyl)-1H-benzo[d]imidazol-1-yl)-3-((2R,3S)-3-hydroxypiperidin-2-yl)propan-2-one], in that order: 5.00 to 5.52 and greater than 7.00.
As to `N#Cc1cc(Cl)cc(-c2ccc3ncn(CC(=O)C[C@H]4NCCC[C@@H]4O)c3c2)c1` [Example 36, 3-chloro-5-(1-(3-((2R,3S)-3-hydroxypiperidin-2-yl)-2-oxopropyl)-1H-benzo[d]imidazol-6-yl)benzonitrile], the values for the pIC50 with NCI-H460 cells and at PRS enzyme were 5.00 to 5.52 and greater than 7.00, respectively.
`O=C(C[C@H]1NCCC[C@@H]1O)Cn1cnc2ccc(-c3cn[nH]c3)cc21` [Example 37, 1-(6-(1H-pyrazol-4-yl)-1H-benzo[d]imidazol-1-yl)-3-((2R,3S)-3-hydroxypiperidin-2-yl)propan-2-one]: the pIC50 is no more than 5.00 in the assay on NCI-H460 cells and greater than 7.00 at PRS enzyme.
Regarding `O=C(C[C@H]1NCCC[C@@H]1O)Cn1cnc2ccc(-c3cc[nH]n3)cc21` [Example 38, 1-(6-(1H-pyrazol-3-yl)-1H-benzo[d]imidazol-1-yl)-3-((2R,3S)-3-hydroxypiperidin-2-yl)propan-2-one], the pIC50 in the assay with NCI-H460 cells was no more than 5.00; on PRS enzyme, 6.30 to 7.00.
For `O=C(C[C@H]1NCCC[C@@H]1O)Cn1cnc2ccc(-c3cscn3)cc21` [Example 39, 1-((2R,3S)-3-hydroxypiperidin-2-yl)-3-(6-(thiazol-4-yl)-1H-benzo[d]imidazol-1-yl)propan-2-one], in that order: no more than 5.00 and 6.30 to 7.00.
On to `O=C(C[C@H]1NCCC[C@@H]1O)Cn1cnc2ccc(-c3ccc(=O)[nH]c3)cc21` [Example 40, 5-(1-(3-((2R,3S)-3-hydroxypiperidin-2-yl)-2-oxopropyl)-1H-benzo[d]imidazol-6-yl)pyridin-2(1H)-one], for which the negative logarithm of the IC50 (pIC50) in the assay with NCI-H460 cells is no more than 5.00; on PRS enzyme, less than 6.30.
As for `O=C(C[C@H]1NCCC[C@@H]1O)Cn1cnc2ncc(-c3cccc(Cl)c3)cc21` [Example 41, 1-(6-(3-chlorophenyl)-1H-imidazo[4,5-b]pyridin-1-yl)-3-((2R,3S)-3-hydroxypiperidin-2-yl)propan-2-one], the pIC50 is no more than 5.00 in the assay with NCI-H460 cells and greater than 7.00 at PRS enzyme.
For `O=C(C[C@H]1NCCC[C@@H]1O)Cn1cnc2ccc(-c3ccccc3F)nc21` [Example 43, 1-(5-(2-fluorophenyl)-3H-imidazo[4,5-b]pyridin-3-yl)-3-((2R,3S)-3-hydroxypiperidin-2-yl)propan-2-one], in that order: no less than 5.52 and 6.30 to 7.00.
For `O=C(C[C@H]1NCCC[C@@H]1O)Cn1cnc2ccc(-c3cccc(F)c3)nc21` [Example 44, 1-(5-(3-fluorophenyl)-3H-imidazo[4,5-b]pyridin-3-yl)-3-((2R,3S)-3-hydroxypiperidin-2-yl)propan-2-one], in that order: no less than 5.52 and greater than 7.00.
For `O=C(C[C@H]1NCCC[C@@H]1O)Cn1cnc2ccc(-c3ccc(F)cc3)nc21` [Example 45, 1-(5-(4-fluorophenyl)-3H-imidazo[4,5-b]pyridin-3-yl)-3-((2R,3S)-3-hydroxypiperidin-2-yl)propan-2-one], in that order: 5.00 to 5.52 and greater than 7.00.
Take `O=C(C[C@H]1NCCC[C@@H]1O)Cn1cnc2ccc(-c3cccc(Cl)c3)nc21` [Example 46, 1-(5-(3-chlorophenyl)-3H-imidazo[4,5-b]pyridin-3-yl)-3-((2R,3S)-3-hydroxypiperidin-2-yl)propan-2-one]: the figures for the pIC50 with NCI-H460 cells and on PRS enzyme were no less than 5.52 and greater than 7.00, respectively.
